Results: patent US12281122B1, “PI3K inhibitors” (Cogent Biosciences, Inc., priority 2023, dated 2025)

Columns and labels:
[1] = test system: SKBR3 (PI3Kα-Wild Type) cell line; experiment: HTRF phospho-AKT(S473) cell assay in SKBR3 cells; assay type: cell-based, human; details: Homo sapiens, SK-BR-3, 2 hours compound incubation, PDGF-BB stimulated
Procedure, shortened: (§1)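 T47D: RPMI + 10% FBS + 0.2 units/mL insulin, top 5 μM. SKBR3: McCoy's 5A + 10% FBS, top 10 μM, 70 ng/ml PDGF-BB last 15 min. Both: 12-pt 1:3, 2 h, 37° C, max 0.5% DMSO; HTRF pAKT(S473); IC50.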

[2] = test system: T47D (PI3Kα-H1047R) cell line; experiment: HTRF phospho-AKT(S473) cell assay in T47D cells; assay type: cell-based, human; details: Homo sapiens, 2 hours compound incubation
Procedure, shortened: as §1

[3] = HTRF phospho-AKT(S473), SKBR3 (PI3Kα-Wild Type) cells
[4] = HTRF phospho-AKT(S473), T47D (PI3Kα-H1047R) cells
[5] = SKBR3 (PI3Kα-Wild Type) cells, HTRF phospho-AKT(S473)
[6] = T47D (PI3Kα-H1047R) cells, HTRF phospho-AKT(S473)

| Compound | IC50 [1, 3] [µM] | IC50 [2, 4] [nM] | IC50 [1, 5] [µM] | IC50 [2, 6] [nM] | also measured |
| --- | --- | --- | --- | --- | --- |
| [2H]C([2H])([2H])n1cc2cc(-c3nc4c([C@@H](C)Nc5ccc(Cl)nc5C(=O)NS(C)(=O)=O)cc(C)cc4c(=O)n3C)ccc2n1 [Compound 817, (R)-6-chloro-3-((1-(3,6-dimethyl-2-(2-(methyl-d3)-2H-indazol-5-yl)-4-oxo-3,4-dihydroquinazolin-8-yl)ethyl)amino)-N-(methylsulfonyl) picolinamide] | 1 to 5 | < 250 |  |  |  |
| Cc1cc([C@@H](C)Nc2ccc(Cl)nc2C(=O)NS(C)(=O)=O)c2nc([C@H]3[C@@H]4CN(c5ncc(Cl)cn5)C[C@@H]43)n(C)c(=O)c2c1 [Compound 825, 6-chloro-3-(((R)-1-(2-((1R,5S,6r)-3-(5-chloropyrimidin-2-yl)-3-azabicyclo[3.1.0]hexan-6-yl)-3,6-dimethyl-4-oxo-3,4-dihydroquinazolin-8-yl)ethyl)amino)-N-(methylsulfonyl) picolinamide] | ≥ 5 | 1000 to 5000 |  |  |  |
| Cc1cc([C@@H](C)Nc2ccc(Cl)nc2C(=O)NS(C)(=O)=O)c2nc(N3CCC(c4cc(C)[nH]n4)CC3)n(C)c(=O)c2c1 [Compound 715, (R)-6-chloro-3-((1-(3,6-dimethyl-2-(4-(5-methyl-1H-pyrazol-3-yl)piperidin-1-yl)-4-oxo-3,4-dihydroquinazolin-8-yl)ethyl)amino)-N-(methylsulfonyl) picolinamide] | 1 to 5 | < 250 |  |  |  |
| Cc1cc([C@@H](C)Nc2ccc(Cl)nc2C(=O)NS(C)(=O)=O)c2nc(-c3ccc(-c4nc(C)no4)nc3)n(C)c(=O)c2c1 [Compound 843, (R)-6-chloro-3-((1-(3,6-dimethyl-2-(6-(3-methyl-1,2,4-oxadiazol-5-yl)pyridin-3-yl)-4-oxo-3,4-dihydroquinazolin-8-yl)ethyl)amino)-N-(methylsulfonyl) picolinamide] |  |  |  |  | IC50 ([1]; SKBR3 (PI3Kα-Wild Type) cell line, phospho-AKT(S473) HTRF): 1 to 5 µM; IC50 ([2]; T47D (PI3Kα-H1047R) cell line, phospho-AKT(S473) HTRF): 250 to 500 nM |
| Cc1cc([C@@H](C)Nc2ccc(Cl)nc2C(=O)NS(C)(=O)=O)c2nc(N3CCC(c4ccn(C)n4)CC3)n(C)c(=O)c2c1 [Compound 178, (R)-6-chloro-3-((1-(3,6-dimethyl-2-(4-(1-methyl-1H-pyrazol-3-yl)piperidin-1-yl)-4-oxo-3,4-dihydroquinazolin-8-yl)ethyl)amino)-N-(methylsulfonyl) picolinamide] |  |  | 1 to 5 | < 250 |  |
| Cc1cc([C@@H](C)Nc2ccc(Cl)nc2C(=O)NS(C)(=O)=O)c2nc(N3C[C@@H]4[C@H](C3)[C@H]4c3n[nH]cc3Cl)n(C)c(=O)c2c1 [Compound 593, 6-chloro-3-(((R)-1-(2-((1R,5S,6R)-6-(4-chloro-1H-pyrazol-3-yl)-3-azabicyclo[3.1.0]hexan-3-yl)-3,6-dimethyl-4-oxo-3,4-dihydroquinazolin-8-yl)ethyl)amino)-N-(methylsulfonyl) picolinamide] | ≥ 5 | 250 to 500 |  |  |  |
| Cc1cc([C@@H](C)Nc2ccc(Cl)nc2C(=O)NS(C)(=O)=O)c2nc(N3CCC(c4ncc(C)nc4C)CC3)n(C)c(=O)c2c1 [Compound 525, (R)-6-chloro-3-((1-(2-(4-(3,5-dimethylpyrazin-2-yl)piperidin-1-yl)-3,6-dimethyl-4-oxo-3,4-dihydroquinazolin-8-yl)ethyl)amino)-N-(methylsulfonyl) picolinamide] | ≥ 5 | < 250 |  |  |  |
| Cc1cc([C@@H](C)Nc2ccc(Cl)nc2C(=O)NS(C)(=O)=O)c2nc(-c3cnn(-c4ccccc4)c3)n(C)c(=O)c2c1 [Compound 171, (R)-6-chloro-3-((1-(3,6-dimethyl-4-oxo-2-(1-phenyl-1H-pyrazol-4-yl)-3,4-dihydroquinazolin-8-yl)ethyl)amino)-N-(methylsulfonyl) picolinamide] |  |  | 1 to 5 | < 250 |  |
| Cc1cc([C@@H](C)Nc2ccc(Cl)nc2C(=O)NS(C)(=O)=O)c2nc(N3CCC(n4nccc4N(C)C)CC3)n(C)c(=O)c2c1 [Compound 309, (R)-6-chloro-3-((1-(2-(4-(5-(dimethylamino)-1H-pyrazol-1-yl)piperidin-1-yl)-3,6-dimethyl-4-oxo-3,4-dihydroquinazolin-8-yl)ethyl)amino)-N-(methylsulfonyl) picolinamide] |  |  | ≥ 5 | 250 to 500 |  |
